From PMC6002448, “Evaluation of the effect of the new methoxy-stilbenes on expression of receptors and enzymes involved in estrogen synthesis in cancer breast cells” (Molecular and Cellular Biochemistry, 2017) come the findings set out here.

The target in this assay is T1, CYP19 (aromatase) (Homo sapiens, UniProt P11511).
T1 construct: gene CYP19A1; human recombinant CYP19
T1 sequence (P11511 1-503): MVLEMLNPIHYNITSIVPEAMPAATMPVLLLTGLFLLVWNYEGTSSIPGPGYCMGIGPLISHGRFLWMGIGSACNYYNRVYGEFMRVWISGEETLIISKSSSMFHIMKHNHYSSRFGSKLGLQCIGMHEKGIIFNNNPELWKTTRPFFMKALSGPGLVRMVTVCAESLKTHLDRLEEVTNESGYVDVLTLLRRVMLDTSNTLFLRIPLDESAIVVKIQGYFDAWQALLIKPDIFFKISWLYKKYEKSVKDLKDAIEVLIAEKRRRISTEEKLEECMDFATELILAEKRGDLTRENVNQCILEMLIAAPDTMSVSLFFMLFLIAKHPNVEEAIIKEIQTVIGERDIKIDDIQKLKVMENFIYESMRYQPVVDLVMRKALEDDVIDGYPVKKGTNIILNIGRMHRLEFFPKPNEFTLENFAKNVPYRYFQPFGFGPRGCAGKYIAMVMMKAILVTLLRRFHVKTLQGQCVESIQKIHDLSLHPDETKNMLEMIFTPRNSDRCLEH
Description: fluorometric CYP19/MFC inhibitor screening kit (recombinant enzyme). It counts as biochemical.

The IC50 is the concentration that inhibits the measured activity by half. Turning to `COc1ccccc1/C=C/c1ccc(OC)c(OC)c1` [3MS, 3,4,2′-trimethoxy-trans-stilbene], the IC50 was roughly 85 µM.
